Earlier results in patent US20200101019A1, “USE OF LIPOSOMES FOR TREATMENT OF CHRONIC VIRAL HEPATITIS B” (JIANGSU MENDEL GENE TECHNOLOGY CO., LTD, priority 2017, published 2020).

Test system: Hepatitis B virus (HBV)
Settings: AASLD Guidelines for Treatment of Chronic Hepatitis B, Hepatology 2016

## Nc1ncnc2c1ncn2CCOCP(=O)(O)O [Adefovir]
  HBeAg/anti-HBe seroconversion rate after treatment with other drugs: 12%

## C=C1[C@H](CO)[C@@H](O)C[C@@H]1n1cnc2c(=O)[nH]c(N)nc21 [Entecavir]
  HBeAg/anti-HBe seroconversion rate after treatment with other drugs: 21%
